Assay results as given in PMC10291551, “Characterization of a Potent and Orally Bioavailable Lys-Covalent Inhibitor of Apoptosis Protein (IAP) Antagonist” (Journal of Medicinal Chemistry, 2023).
Values after ≈ are worked out from the molar mass of the structure shown. Values belong to the molecule of their own block, whether it stands above or below them.

Columns and labels:
[1] = in vivo; details: Balb/c, mouse, plasma, 30 mg/kg
[2] = pH = 7.5, T = 25 °C; cited from earlier work
[3] = Solubility in dosing formulation; format: physicochemical; details: dosing formulation of 80% PBS, 10% ethanol, 10% Tween80, aqueous with cosolvent or surfactant or cyclodextrin
[4] = design: method as in PMID 31550155; details: cited from earlier work
[5] = target: T1, cIAP1-BIR3 (Homo sapiens, UniProt Q13490); test: DELFIA displacement assay (biotinylated AVPI peptide); format: binding
T1 construct: from the BIR3 domains of XIAP, cIAP1, and cIAP2

SMILES: CN[C@@H](C)C(=O)N[C@H](C(=O)N1CCC[C@H]1C(=O)N[C@@H]1CCc2c(OS(=O)(=O)F)cccc21)C1CCCCC1 [142D6, (R)-1-((S)-1-((S)-2-cyclohexyl-2-((S)-2-(methylamino)propanamido)acetyl)pyrrolidine-2-carboxamido)-2,3-dihydro-1H-inden-4-yl sulfurofluoridate]
bioavailability at 24 h ([1]; ip): 35% | bioavailability at 24 h ([1]; po): 36% | solubility in aqueous buffer [2]: up to 2 mM | solubility [3]: 7500 µg/mL (≈ 13.6 mM)

SMILES: CN[C@@H](C)C(=O)N[C@H](C(=O)N1CCC[C@H]1c1nc(C(=O)c2ccc(F)cc2)cs1)C1CCCCC1 [LCL161]
plasma stability t1/2 [4]: > 2 h

IC50 ([5]; after 6 h preincubation (bottom values)): 19.3 nM | IC50 ([5]; without preincubation (top values)): 16.6 ± 1.7 nM
SMILES: CN[C@@H](C)C(=O)N[C@H](C(=O)N1CCC[C@H]1C(=O)N[C@@H]1CCc2c(O)cccc21)C1CCCCC1 [compound 1, (S)-1-((S)-2-cyclohexyl-2-((S)-2-(methylamino)propanamido)acetyl)-N-((R)-4-hydroxy-2,3-dihydro-1H-inden-1-yl)pyrrolidine-2-carboxamide]
